Assays:
[1] = molecular target: T1, PI3 Kbeta (PI3 Kb) (Homo sapiens, UniProt P42338); assay: kinobeads assay, PI3Kbeta; format: binding; conditions: kinobeads assay, Table 6; read-out: Inhibition values (IC50) PI3Kb
T1 construct: endogenous in cells; host or cells: cell lysate
Outline: (§1)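 IC50s are fitted to per-kinase dose-response curves. Kinases retained on phenylmorpholin-chromen affinity beads are read by multiplexed immunodetection after elution. Compound, added at a range of concentrations straight into cell lysate, competes for this bead capture.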

[2] = molecular target: T2, PI3K delta (PI3 Kd) (Homo sapiens, UniProt O00329); assay: kinobeads assay, PI3K delta; format: binding; conditions: kinobeads assay, Table 6; read-out: Inhibition values (IC50) PI3Kd
T2 construct: endogenous in cells; host or cells: Jurkat, clone E6-1 (ATCC TIB-152) cell lysate
T2 sequence (O00329 whole entry): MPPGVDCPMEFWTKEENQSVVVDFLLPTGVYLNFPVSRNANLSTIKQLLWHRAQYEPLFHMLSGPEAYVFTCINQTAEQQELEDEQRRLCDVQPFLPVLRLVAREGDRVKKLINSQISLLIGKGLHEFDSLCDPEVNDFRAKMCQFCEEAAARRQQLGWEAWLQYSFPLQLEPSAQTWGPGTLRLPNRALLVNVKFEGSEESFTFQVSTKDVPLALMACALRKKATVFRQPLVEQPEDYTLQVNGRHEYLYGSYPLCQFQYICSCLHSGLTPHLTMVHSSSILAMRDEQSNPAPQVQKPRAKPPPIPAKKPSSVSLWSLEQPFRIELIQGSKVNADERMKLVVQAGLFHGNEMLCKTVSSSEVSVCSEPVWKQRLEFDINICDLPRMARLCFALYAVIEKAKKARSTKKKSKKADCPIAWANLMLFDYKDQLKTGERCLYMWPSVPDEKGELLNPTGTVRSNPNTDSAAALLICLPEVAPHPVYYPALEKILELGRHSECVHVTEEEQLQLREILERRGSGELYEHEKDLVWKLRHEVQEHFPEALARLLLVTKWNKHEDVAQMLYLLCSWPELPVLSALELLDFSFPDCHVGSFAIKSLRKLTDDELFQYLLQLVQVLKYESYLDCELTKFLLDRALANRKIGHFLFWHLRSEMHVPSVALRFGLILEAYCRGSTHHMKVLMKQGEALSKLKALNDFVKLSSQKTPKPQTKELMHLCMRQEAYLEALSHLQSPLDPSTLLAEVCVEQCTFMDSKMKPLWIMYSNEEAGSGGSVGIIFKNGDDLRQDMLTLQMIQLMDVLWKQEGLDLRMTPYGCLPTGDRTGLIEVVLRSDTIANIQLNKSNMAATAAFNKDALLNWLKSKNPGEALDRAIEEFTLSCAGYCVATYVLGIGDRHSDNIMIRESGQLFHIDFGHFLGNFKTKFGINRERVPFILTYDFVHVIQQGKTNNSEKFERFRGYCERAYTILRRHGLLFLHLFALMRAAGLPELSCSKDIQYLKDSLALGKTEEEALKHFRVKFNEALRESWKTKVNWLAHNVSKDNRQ
T2 sequence (P27986 whole entry partner): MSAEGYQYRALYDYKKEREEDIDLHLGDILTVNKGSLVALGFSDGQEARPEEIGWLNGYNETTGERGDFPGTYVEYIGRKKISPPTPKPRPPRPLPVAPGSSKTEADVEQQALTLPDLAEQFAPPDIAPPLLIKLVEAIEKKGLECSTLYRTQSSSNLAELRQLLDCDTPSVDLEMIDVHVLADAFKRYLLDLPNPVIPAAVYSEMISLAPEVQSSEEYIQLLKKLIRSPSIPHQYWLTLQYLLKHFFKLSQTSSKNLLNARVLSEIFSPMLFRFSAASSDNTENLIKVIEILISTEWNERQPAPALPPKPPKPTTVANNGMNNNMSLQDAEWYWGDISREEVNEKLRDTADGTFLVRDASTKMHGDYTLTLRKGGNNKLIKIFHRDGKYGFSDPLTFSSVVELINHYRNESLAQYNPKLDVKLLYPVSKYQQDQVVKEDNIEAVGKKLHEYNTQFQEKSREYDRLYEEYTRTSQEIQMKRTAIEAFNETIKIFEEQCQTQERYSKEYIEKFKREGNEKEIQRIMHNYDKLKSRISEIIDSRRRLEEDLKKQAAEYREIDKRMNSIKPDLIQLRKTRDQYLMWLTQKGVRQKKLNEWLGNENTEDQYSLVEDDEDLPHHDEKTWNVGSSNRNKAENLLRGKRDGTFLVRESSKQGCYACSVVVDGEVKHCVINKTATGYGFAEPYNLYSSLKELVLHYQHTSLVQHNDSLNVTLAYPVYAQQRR
Outline: (§2)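 Competitive binding in Jurkat cell lysate (5 mg/ml total protein): test compounds at various concentrations competed with beads bearing immobilized phenylmorpholin-chromen ligand. Bead-bound kinases were eluted and quantified by antibody dot blot with infrared detection; IC50 values came from dose-response curves.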

[3] = molecular target: T3, PI3Kalpha (PI3Ka) (Homo sapiens, UniProt P42336); assay: kinobeads assay, PI3Kalpha; format: binding; conditions: kinobeads assay, Table 6
T3 construct: endogenous in cells; host or cells: cell lysate
T3 sequence (P42336 whole entry): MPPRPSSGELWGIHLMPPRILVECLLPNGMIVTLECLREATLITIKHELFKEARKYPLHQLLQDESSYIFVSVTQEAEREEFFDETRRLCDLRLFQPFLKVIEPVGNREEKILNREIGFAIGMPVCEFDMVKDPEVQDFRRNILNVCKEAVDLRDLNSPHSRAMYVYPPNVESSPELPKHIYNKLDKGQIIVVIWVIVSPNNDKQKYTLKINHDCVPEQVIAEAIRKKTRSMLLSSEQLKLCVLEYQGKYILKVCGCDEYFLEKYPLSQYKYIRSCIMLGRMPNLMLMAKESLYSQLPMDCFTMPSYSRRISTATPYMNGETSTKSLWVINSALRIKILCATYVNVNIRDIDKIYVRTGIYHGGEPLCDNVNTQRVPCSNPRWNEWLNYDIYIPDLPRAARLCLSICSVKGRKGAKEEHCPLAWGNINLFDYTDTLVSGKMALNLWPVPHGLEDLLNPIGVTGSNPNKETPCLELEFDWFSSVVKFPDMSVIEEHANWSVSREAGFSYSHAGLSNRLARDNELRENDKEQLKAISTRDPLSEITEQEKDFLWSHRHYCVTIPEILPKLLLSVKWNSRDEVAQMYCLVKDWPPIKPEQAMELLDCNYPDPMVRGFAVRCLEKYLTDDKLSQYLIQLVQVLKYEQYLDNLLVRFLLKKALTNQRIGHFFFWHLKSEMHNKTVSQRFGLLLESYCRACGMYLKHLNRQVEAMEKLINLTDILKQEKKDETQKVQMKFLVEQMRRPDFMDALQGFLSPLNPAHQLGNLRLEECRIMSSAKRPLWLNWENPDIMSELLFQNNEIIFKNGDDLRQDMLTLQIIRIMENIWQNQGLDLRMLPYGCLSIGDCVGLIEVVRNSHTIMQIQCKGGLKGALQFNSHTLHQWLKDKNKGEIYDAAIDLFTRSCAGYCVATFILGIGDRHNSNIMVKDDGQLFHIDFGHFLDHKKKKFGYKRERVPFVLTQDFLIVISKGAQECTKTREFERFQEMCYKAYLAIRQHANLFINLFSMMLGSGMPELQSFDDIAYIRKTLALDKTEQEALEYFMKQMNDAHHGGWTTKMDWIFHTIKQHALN
T3 sequence (P27986 whole entry partner): as the sequence (P27986 whole entry partner) above
Outline: as §1

[4] = molecular target: T4, PI3 Kgamma (PI3 Kg) (Homo sapiens, UniProt P48736); assay: kinobeads assay, PI3Kgamma; format: binding; conditions: kinobeads assay, Table 6; read-out: Inhibition values (IC50) PI3Kg
T4 construct: endogenous in cells; host or cells: cell lysate
T4 sequence (P48736 whole entry): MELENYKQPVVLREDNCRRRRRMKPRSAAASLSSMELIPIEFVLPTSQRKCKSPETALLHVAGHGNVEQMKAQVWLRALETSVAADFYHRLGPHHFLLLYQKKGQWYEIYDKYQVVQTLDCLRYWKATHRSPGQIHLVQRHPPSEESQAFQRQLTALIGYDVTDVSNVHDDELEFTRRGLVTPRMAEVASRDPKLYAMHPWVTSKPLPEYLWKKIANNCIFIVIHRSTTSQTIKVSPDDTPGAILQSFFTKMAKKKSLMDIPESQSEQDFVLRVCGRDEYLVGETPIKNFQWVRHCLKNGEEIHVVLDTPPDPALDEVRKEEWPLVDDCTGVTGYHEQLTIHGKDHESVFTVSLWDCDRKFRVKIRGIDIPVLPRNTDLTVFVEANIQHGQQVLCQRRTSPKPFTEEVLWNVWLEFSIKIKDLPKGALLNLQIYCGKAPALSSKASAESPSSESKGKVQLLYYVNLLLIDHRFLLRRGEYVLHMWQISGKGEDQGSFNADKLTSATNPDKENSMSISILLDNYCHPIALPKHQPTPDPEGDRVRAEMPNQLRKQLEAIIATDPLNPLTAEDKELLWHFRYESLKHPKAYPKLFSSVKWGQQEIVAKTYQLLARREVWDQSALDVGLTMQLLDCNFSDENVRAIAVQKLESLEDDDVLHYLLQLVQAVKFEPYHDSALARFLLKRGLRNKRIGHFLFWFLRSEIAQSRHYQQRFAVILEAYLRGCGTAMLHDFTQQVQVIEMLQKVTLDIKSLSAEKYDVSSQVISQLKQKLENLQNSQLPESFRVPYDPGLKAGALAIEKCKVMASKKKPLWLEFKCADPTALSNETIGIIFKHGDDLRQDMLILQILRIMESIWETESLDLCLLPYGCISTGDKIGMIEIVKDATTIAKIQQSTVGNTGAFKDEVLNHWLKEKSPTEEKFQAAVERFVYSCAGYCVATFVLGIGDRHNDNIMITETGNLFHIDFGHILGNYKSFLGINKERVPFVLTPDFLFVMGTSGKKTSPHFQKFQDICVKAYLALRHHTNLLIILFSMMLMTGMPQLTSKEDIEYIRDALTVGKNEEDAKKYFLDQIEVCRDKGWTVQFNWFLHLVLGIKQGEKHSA
Outline: as §1

[5] = tested on: S6RP serine-240/244 phosphorylation; assay: In vitro Phospho-S6 cellular assay (pS6RP S240/244) in HEK293T/17 cells; format: cell-based; conditions: Homo sapiens, 2 hours, read-out: pS6 IC50
Excerpt: Activation of mTOR signaling results in phosphorylation of several downstream targets. In cells, mTOR exists in two different protein complexes. The mTOR Complex-1 (mTORC1) phosphorylates and activates S6 Kinase 1 (S6K1) and S6 Kinase 2 (S6K2) (also known as p70S6K) which then phosphorylate S6 Ribosomal Protein (S6RP) (also known as RPS6)3. S6RP is phosphorylated on serine 235, serine 236, serine 240 and serine 244 by both pS6K1 and pS6K2. The mTOR Complex-2 (mTORC2) phosphorylates AKT on serine 473 which activates the AKT signaling pathway.
The assay measures a test compound's inhibition of S6RP serine-240/244 phosphorylation and inhibition of Akt serine-473 phosphorylation in human embryonic kidney derived HEK293T/17 cells (ATCC CRL-11268).
The HEK293T/17 cell line is maintained in DMEM media (Invitrogen catalogue number 41965-039) supplemented with 10% FCS at 37° C. in a 5% CO2 humidified incubator.
Cells are seeded in 96-well plates at 40,000 cells/well (pS6RP S240/244 assay) or 80,000 cells/well (pAkt S473 assay) in 90 μl growth media (DMEM, 2% FCS). Plates are incubated for 1 hour in a humidified incubator to allow the cells to adhere. Cells are treated with 8 concentrations of test compounds or DMSO alone for controls (final DMSO concentration 0.1%) and incubated at 37° C. for 2 hours. Then 20 μl of 5× concentrated lysis buffer (750 mM NaCl, 100 mM Tris pH7.4, 5 mM ADTA, 5 mM EGTA, 5% Triton X-100) is added, plates are sealed and incubated for 15 minutes at 4° C. with gentle shaking. After cell lysis, 25 μl cell lysate is transferred to a MesoScale plate coated with an antibody to pS6RP Ser240/244 (MesoScale Discovery K150DGD-3) or an antibody to pAkt Ser 473 (MesoScale Discovery K151DGD-3). Plates have been blocked before by incubation with 150 μl MesoScale Discovery Blocking Solution-A for 1 hour at room temperature followed by washing with 150 μl 1× Tris wash buffer per well. After the transfer of the cell lysate to the MSD plate, the pS6RP (or pAkt) protein is captured on the coated antibody by incubation at room temperature for 1 hour with gentle shaking. After the capture step the plate is washed three times with 150 μl of 1× Tris wash buffer per well. Then 25 μl detection antibody conjugated with a Sulfo-Tag is added and incubated for 1 hour at room temperature with gentle shaking. Subsequently the antibody solution is removed and the plate is washed 3 times with 150 μl×Tris wash buffer per well and 150 μl Read buffer is added. The plates are analysed on a MSD 2400 Plate Reader (MesoScale Discovery). Data analysis is performed using nonlinear regression for a sigmoidal dose-response with a variable slope.

[6] = molecular target: T5, DNA-dependent protein kinase (DNA-PK) (Homo sapiens, UniProt P78527); assay: kinobeads assay, DNA-PK; format: binding; conditions: kinobeads assay, Table 6; read-out: Inhibition values (IC50) DNAPK
T5 construct: endogenous in cells; host or cells: Jurkat, clone E6-1 (ATCC TIB-152) cell lysate
Outline: as §2

[7] = tested on: Salmonella typhimurium strain TA1535; assay: Ames plate assay, TA1535
Procedure: (§3) Certain compounds of the invention were tested for their potential to induce gene mutations in bacterial strains of Salmonella typhimurium (strains TA1535, TA1537, TA98, TA100) and Escherichia coli (strain WP2uvrA(pKM101)) in a bacterial mutation assay in the absence and presence of metabolite activation (rat S9-mix). Compounds are tested at the following dose levels: 50, 150, 500, or 1500 μg/plate.
(§4) Vehicle control treatment is the vehicle used to prepare the test compound formulation diluted to the same extent as the test compound solution. Positive controls using known mutagens are included for each strain with and without rat S9 mix. Four plates are used for the vehicle control and two replicate plates per dose per strain for the treated groups and for each positive control. At the end of incubation the number of revertant colonies per plate are recorded and mean values calculated for each vehicle control, positive control and concentration of test compound used. Results are also expressed as a ratio of the mean values to the mean concurrent vehicle control value (i.e. fold increase).

[8] = tested on: Escherichia coli strain WP2uvrA(pKM101); assay: Ames plate assay, WP2uvrA(pKM101)
Procedure: as §3, §4

[9] = tested on: Salmonella typhimurium strain TA1537; assay: Ames plate assay, TA1537
Procedure: as §3, §4

[10] = tested on: Salmonella typhimurium strain TA98; assay: Ames plate assay, TA98
Procedure: as §3, §4

[11] = tested on: Salmonella typhimurium strain TA100; assay: Ames plate assay, TA100
Procedure: as §3, §4

T1 sequence (P42338 whole entry): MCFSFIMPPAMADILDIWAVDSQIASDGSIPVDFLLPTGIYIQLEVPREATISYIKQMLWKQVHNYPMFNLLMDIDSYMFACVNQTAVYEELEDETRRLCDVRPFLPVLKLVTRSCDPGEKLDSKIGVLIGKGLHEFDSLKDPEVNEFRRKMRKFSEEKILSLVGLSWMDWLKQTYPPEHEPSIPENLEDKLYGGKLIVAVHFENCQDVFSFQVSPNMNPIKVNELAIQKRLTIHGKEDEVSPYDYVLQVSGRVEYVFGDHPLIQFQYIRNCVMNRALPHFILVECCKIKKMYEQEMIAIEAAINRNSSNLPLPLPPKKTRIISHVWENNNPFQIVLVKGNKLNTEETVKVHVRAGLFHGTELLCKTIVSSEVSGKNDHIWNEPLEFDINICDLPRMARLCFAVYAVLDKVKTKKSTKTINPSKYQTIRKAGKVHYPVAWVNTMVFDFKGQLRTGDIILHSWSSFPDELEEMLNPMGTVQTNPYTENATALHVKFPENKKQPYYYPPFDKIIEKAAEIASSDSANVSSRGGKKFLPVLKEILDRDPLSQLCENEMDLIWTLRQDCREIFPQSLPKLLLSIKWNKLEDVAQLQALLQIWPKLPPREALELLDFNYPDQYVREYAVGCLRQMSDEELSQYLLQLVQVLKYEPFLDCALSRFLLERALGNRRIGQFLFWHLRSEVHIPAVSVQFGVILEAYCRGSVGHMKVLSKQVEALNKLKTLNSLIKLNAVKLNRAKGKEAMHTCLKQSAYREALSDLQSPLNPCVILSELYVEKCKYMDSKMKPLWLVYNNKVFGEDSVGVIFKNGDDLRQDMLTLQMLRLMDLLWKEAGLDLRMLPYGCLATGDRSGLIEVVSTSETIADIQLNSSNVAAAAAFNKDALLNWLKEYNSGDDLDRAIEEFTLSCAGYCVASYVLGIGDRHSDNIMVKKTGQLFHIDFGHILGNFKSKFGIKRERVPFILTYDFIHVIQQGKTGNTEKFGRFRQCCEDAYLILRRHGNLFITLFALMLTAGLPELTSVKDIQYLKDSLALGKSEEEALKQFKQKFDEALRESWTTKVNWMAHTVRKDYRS
T1 sequence (P27986 whole entry partner): as the sequence (P27986 whole entry partner) above

CCNC(=O)Nc1ccc(-c2nc3c(c(N4CCOC[C@@H]4C)n2)CCN(C(C)C)C3)cc1.O=CO [Example 75, (S)-1-ethyl-3-(4-(7-isopropyl-4-(3-methylmorpholino)-5,6,7,8-tetrahydropyrido[3,4-d]pyrimidin-2-yl)phenyl)urea formate]
D (D >10 μM): Inhibition values (IC50) PI3Ka [3]
0.082 µM: IC50 [5]
> 10 µM: IC50 [1] | IC50 [2] | IC50 [4] | IC50 [6]

CCNC(=O)Nc1ccc(-c2nc3c(c(N4CCOCC4)n2)CN(C(=O)NCC)C3)cc1 [Example 79, N-ethyl-2-(4-(3-ethylureido)phenyl)-4-morpholino-5H-pyrrolo[3,4-d]pyrimidine-6(7H)-carboxamide]
1 to 10 µM: IC50 [2] | IC50 ([3]; read-out: Inhibition values (IC50) PI3Ka) | IC50 [6]
0.589 µM: IC50 [5]
> 10 µM: IC50 [1] | IC50 [4]

CCNC(=O)Nc1ccc(-c2nc3c(c(N4CCOCC4)n2)CCNC3)cc1 [Example 82, 1-ethyl-3-(4-(4-morpholino-5,6,7,8-tetrahydropyrido[3,4-d]pyrimidin-2-yl)phenyl)urea]
0.991 µM: IC50 [5]
> 10 µM: IC50 [1] | IC50 [2] | IC50 [4] | IC50 [6]
D (D >10 μM): Inhibition values (IC50) PI3Ka [3]

CCNC(=O)Nc1ccc(-c2nc3c(c(N4CCOCC4)n2)CCN(C(=O)OC)C3)cc1 [Example 95, methyl 2-(4-(3-ethylureido)phenyl)-4-morpholino-5,6-dihydropyrido[3,4-d]pyrimidine-7(8H)-carboxylate]
0.218 µM: IC50 [5]
D (D >10 μM): Inhibition values (IC50) PI3Ka [3]
> 10 µM: IC50 [1] | IC50 [2] | IC50 [4] | IC50 [6]

CCOC(=O)N1Cc2nc(-c3ccc(N)cc3F)nc(N3CCOC[C@@H]3C)c2C1 [Example 138]
−: Ames plate assay TA1535 +S9 ([7]; TA1535, +S9, 50 μg/Plate) | Ames plate assay TA1535 +S9 ([7]; TA1535, +S9, 150 μg/Plate) | Ames plate assay TA1535 +S9 ([7]; TA1535, +S9, 500 μg/Plate) | Ames plate assay TA1535 +S9 ([7]; TA1535, +S9, 1500 μg/Plate) | Ames plate assay TA1535 −S9 ([7]; TA1535, −S9, 50 μg/Plate) | Ames plate assay TA1535 −S9 ([7]; TA1535, −S9, 150 μg/Plate) | Ames plate assay TA1535 −S9 ([7]; TA1535, −S9, 500 μg/Plate) | Ames plate assay TA1535 −S9 ([7]; TA1535, −S9, 1500 μg/Plate) | Ames plate assay WP2uvrA (pKM101) +S9 ([8]; +S9, 50 μg/Plate) | Ames plate assay WP2uvrA (pKM101) +S9 ([8]; +S9, 150 μg/Plate) | Ames plate assay WP2uvrA (pKM101) +S9 ([8]; +S9, 500 μg/Plate) | Ames plate assay WP2uvrA (pKM101) +S9 ([8]; +S9, 1500 μg/Plate) | Ames plate assay WP2uvrA (pKM101) −S9 ([8]; −S9, 50 μg/Plate) | Ames plate assay WP2uvrA (pKM101) −S9 ([8]; −S9, 150 μg/Plate) | Ames plate assay WP2uvrA (pKM101) −S9 ([8]; −S9, 500 μg/Plate) | Ames plate assay WP2uvrA (pKM101) −S9 ([8]; −S9, 1500 μg/Plate) | Ames plate assay TA1537 +S9 ([9]; TA1537, +S9, 50 μg/Plate) | Ames plate assay TA1537 +S9 ([9]; TA1537, +S9, 150 μg/Plate) | Ames plate assay TA1537 +S9 ([9]; TA1537, +S9, 500 μg/Plate) | Ames plate assay TA1537 +S9 ([9]; TA1537, +S9, 1500 μg/Plate) | Ames plate assay TA1537 −S9 ([9]; TA1537, −S9, 50 μg/Plate) | Ames plate assay TA1537 −S9 ([9]; TA1537, −S9, 150 μg/Plate) | Ames plate assay TA1537 −S9 ([9]; TA1537, −S9, 500 μg/Plate) | Ames plate assay TA1537 −S9 ([9]; TA1537, −S9, 1500 μg/Plate) | Ames plate assay TA98 +S9 ([10]; TA98, +S9, 50 μg/Plate) | Ames plate assay TA98 +S9 ([10]; TA98, +S9, 150 μg/Plate) | Ames plate assay TA98 +S9 ([10]; TA98, +S9, 500 μg/Plate) | Ames plate assay TA98 +S9 ([10]; TA98, +S9, 1500 μg/Plate) | Ames plate assay TA98 −S9 ([10]; TA98, −S9, 50 μg/Plate) | Ames plate assay TA98 −S9 ([10]; TA98, −S9, 150 μg/Plate) | Ames plate assay TA98 −S9 ([10]; TA98, −S9, 500 μg/Plate) | Ames plate assay TA98 −S9 ([10]; TA98, −S9, 1500 μg/Plate) | Ames plate assay TA100 +S9 ([11]; TA100, +S9, 50 μg/Plate) | Ames plate assay TA100 +S9 ([11]; TA100, +S9, 150 μg/Plate) | Ames plate assay TA100 +S9 ([11]; TA100, +S9, 500 μg/Plate) | Ames plate assay TA100 +S9 ([11]; TA100, +S9, 1500 μg/Plate) | Ames plate assay TA100 −S9 ([11]; TA100, −S9, 50 μg/Plate) | Ames plate assay TA100 −S9 ([11]; TA100, −S9, 150 μg/Plate) | Ames plate assay TA100 −S9 ([11]; TA100, −S9, 500 μg/Plate) | Ames plate assay TA100 −S9 ([11]; TA100, −S9, 1500 μg/Plate)
